Values quoted from earlier work in patent US20040131544A1, “In vivo imaging” (priority 1999, published 2004).

Settings: background statement; Doze, et al., Nuclear Medicine and Biology 27:315-319 (2000)

CC(C)NCC(O)COc1cccc2[nH]c3ccccc3c12 (stereo not shown) [carazolol]
adverse properties (mutagenicity / toxicity): not toxic
